{"source": "patent US20190382432A1", "about": "(Synbias Pharma AG, priority 2013, published 2019)", "type_in_all_cases": "physicochemical", "key": {"[1]": {"assay": "Particle size distribution by laser diffraction analysis (Mastersizer 2000)", "conditions": "wet laser diffraction in acetone; listed as Sample 3, hydrochloride", "description": "Laser diffraction analysis was performed in form of wet laser diffraction in acetone: 1750 rpm, 3×20 s cycle time, 60 s background time, without sonication, and 5 min stirring time using a Mastersizer 2000 Particle Size Analyzer (Malvern Instruments Ltd., Malvern, UK) according to the manufacturer's instructions."}, "[2]": {"assay": "Thermostability on storage at 25, 40 and 100 °C per ICH Q1A (R2), HPLC", "conditions": "25, 40, 100 °C; data not shown", "description": "HPLC and GC analyses were performed according to standard protocols.\nThe testing was performed as described in the ICH guidelines (cf. inter alia ICH Guideline Q1A (R2))."}, "[3]": {"assay": "Hygroscopic capacity: water content by Karl-Fischer titration after exposure to temperature and relative humidity", "conditions": "25 or 40 °C, 40-90% rh; data not shown", "description": "Coulometric Karl-Fischer titration (KFT; for determining the water content) was performed with an external drying oven (Metrohm 707 KF; operated at 140° C. with N2 purge). The samples were precisely weighed on an analytical balance (10^−5 g).\nThe testing was performed as described in the ICH guidelines."}, "[4]": {"assay": "Thermostability under stress conditions (storage at 100 °C for one month), HPLC", "description": "Sample S was prepared according to the present invention, as described in Example 3 above. Sample M1 was prepared according to Example 1 of WO 2012/163508 A1, as described in Example 7 above. Finally, Sample M2 was prepared according to Example 2 of WO 2012/163508 A1, as described in Example 7 above.\nThe samples were exposed to a temperature of 100° C. for the time period (in weeks) indicated. The testing was performed as described in the ICH Guideline Q1A (R2) (cf. above). The amount of the degradation product (i.e. doxorubicinone) produced as well as those of various impurities (i.e., doxorubicin and four different impurities of yet unknown identity; all given in % (w/w); “n.d.”=not determined) was determined by HPCL analysis (“LT”=less than)."}}, "note": "Counter-ions that a name gives are not always drawn. Marks after values point to notes of the source that are not given here.", "data": [{"smiles": "COc1cccc2c1C(=O)c1c(O)c3c(c(O)c1C2=O)C[C@@](O)(C(=O)CO)C[C@@H]3O[C@H]1C[C@H](N)[C@H](O)[C@H](C)O1", "note": "[S, epirubicin hydrochloride]", "values": [{"measurement": "D(v/0.5), mean diameter based on the volume of the particles", "setting": "[1]", "value": 25.25, "unit": "μm"}, {"measurement": "Thermostability compared with the Example 1 monohydrate (TABLE 5-1), in words", "setting": "[2]", "value": "almost identical results"}, {"measurement": "Hygroscopic capacity compared with the Example 1 monohydrate (TABLE 6-1), in words", "setting": "[3]", "value": "almost identical results"}, {"measurement": "Doxorubicin (NMT 1%)", "setting": "[4]; 0 weeks", "value": "0.29 % (w/w)"}, {"measurement": "Doxorubicinone (Aglycone) (NMT 1%)", "setting": "[4]; 0 weeks", "value": "< 0.05 % (w/w)"}, {"measurement": "Total Impurities (NMT 2%)", "setting": "[4]; 0 weeks", "value": "0.30 % (w/w)"}, {"measurement": "Doxorubicin (NMT 1%)", "setting": "[4]; 1 week, hydrochloride", "value": "0.28 % (w/w)"}, {"measurement": "Doxorubicinone (Aglycone) (NMT 1%)", "setting": "[4]; 1 week, hydrochloride", "value": "0.39 % (w/w)"}, {"measurement": "Total Impurities (NMT 2%)", "setting": "[4]; 1 week, hydrochloride", "value": "0.80 % (w/w)"}, {"measurement": "Unknown impurity RRT 1.7 (NMT 0.15%)", "setting": "[4]; 1 week, hydrochloride", "value": "0.08 % (w/w)"}, {"measurement": "Doxorubicin (NMT 1%)", "setting": "[4]; 2 weeks", "value": "0.32 % (w/w)"}, {"measurement": "Doxorubicinone (Aglycone) (NMT 1%)", "setting": "[4]; 2 weeks, hydrochloride", "value": "0.40 % (w/w)"}, {"measurement": "Total Impurities (NMT 2%)", "setting": "[4]; 2 weeks, hydrochloride", "value": "0.90 % (w/w)"}, {"measurement": "Unknown impurity RRT 1.2 (NMT 0.15%)", "setting": "[4]; 2 weeks, hydrochloride", "value": "0.07 % (w/w)"}, {"measurement": "Unknown impurity RRT 1.6 (NMT 0.15%)", "setting": "[4]; 2 weeks, hydrochloride", "value": "0.05 % (w/w)"}, {"measurement": "Unknown impurity RRT 1.7 (NMT 0.15%)", "setting": "[4]; 2 weeks, hydrochloride", "value": "0.09 % (w/w)"}, {"measurement": "Doxorubicin (NMT 1%)", "setting": "[4]; 3 weeks, hydrochloride", "value": "0.32 % (w/w)"}, {"measurement": "Doxorubicinone (Aglycone) (NMT 1%)", "setting": "[4]; 3 weeks, hydrochloride", "value": "0.46 % (w/w)"}, {"measurement": "Total Impurities (NMT 2%)", "setting": "[4]; 3 weeks, hydrochloride", "value": "1.10 % (w/w)"}, {"measurement": "Unknown impurity RRT 1.2 (NMT 0.15%)", "setting": "[4]; 3 weeks, hydrochloride", "value": "0.08 % (w/w)"}, {"measurement": "Unknown impurity RRT 1.6 (NMT 0.15%)", "setting": "[4]; 3 weeks, hydrochloride", "value": "0.12 % (w/w)"}, {"measurement": "Unknown impurity RRT 1.7 (NMT 0.15%)", "setting": "[4]; 3 weeks, hydrochloride", "value": "0.13 % (w/w)"}, {"measurement": "Doxorubicin (NMT 1%)", "setting": "[4]; 4 weeks", "value": "0.33 % (w/w)"}, {"measurement": "Doxorubicinone (Aglycone) (NMT 1%)", "setting": "[4]; 4 weeks, hydrochloride", "value": "0.49 % (w/w)"}, {"measurement": "Total Impurities (NMT 2%)", "setting": "[4]; 4 weeks, hydrochloride", "value": "1.3* % (w/w)"}, {"measurement": "Total amount of unknown impurities", "setting": "[4]; 4 weeks, hydrochloride", "value": "0.48 % (w/w)"}, {"measurement": "Unknown impurity RRT 1.1 (NMT 0.15%)", "setting": "[4]; 4 weeks, hydrochloride", "value": "0.06 % (w/w)"}, {"measurement": "Unknown impurity RRT 1.2 (NMT 0.15%)", "setting": "[4]; 4 weeks, hydrochloride", "value": "0.11 % (w/w)"}, {"measurement": "Unknown impurity RRT 1.6 (NMT 0.15%)", "setting": "[4]; 4 weeks, hydrochloride", "value": "0.15 % (w/w)"}, {"measurement": "Unknown impurity RRT 1.7 (NMT 0.15%)", "setting": "[4]; 4 weeks, hydrochloride", "value": "0.15 % (w/w)"}, {"measurement": "Degradation under stress conditions compared with M1 and M2, in words", "setting": "[4]; one month", "value": "less pronounced degradation"}]}]}
